In patent US9604961B2, “Histone demethylase inhibitors” (Celgene Quanticel Research, Inc., priority 2012, dated 2017):

How the values were obtained:
Jarid1A = Jarid1A (Homo sapiens (Human), UniProt P29375); test: Jarid1A in vitro enzyme inhibition assay (TR-FRET); assay type: biochemical
Source text: The enzymatic assay of Jarid1A activity is based upon Time Resolved-Fluorescence Resonance Energy Transfer (TR-FRET) detection.

Jarid1B = Jarid1B (Homo sapiens (Human), UniProt Q9UGL1); test: Jarid1B in vitro enzyme inhibition assay (TR-FRET); assay type: biochemical
JMJD2C = JMJD2C (Homo sapiens (Human), UniProt Q9H3R0); test: JMJD2C in vitro enzyme inhibition assay (TR-FRET); assay type: biochemical
FBXL10 = FBXL10 (Homo sapiens (Human), UniProt Q8NHM5); test: FBXL10 in vitro enzyme inhibition assay (AlphaScreen); assay type: biochemical
Protocol: Reaction product was determined quantitatively by AlphaScreen detection after the addition of detection reagents anti-H3K36me1 antibody, AlphaScreen® Streptavidin-coated Donor beads, and AlphaScreen® Protein A Acceptor beads in 50 mM HEPES, pH7.3, 10 mM NaCl, 0.005% Brij35, 5 mM EDTA, 2 mg/ml BSA to final 10 μg/ml beads.
Plates were incubated at room temperature for 40 minutes, followed by addition of 3 μl of 50 μg/ml AlphaScreen® Streptavidin-coated Donor beads and AlphaScreen® Protein A Acceptor beads in 50 mM HEPES, pH7.3, 10 mM NaCl, 0.005% Brij35, 5 mM EDTA, 2 mg/ml BSA. Plates were read by EnVisionMultilabel Reader in AlphaScreen mode after a minimum of 2 hour or up to overnight incubation at room temperature. The AlphaScreen signal for each well was used to determine inhibition constant (IC50).

JMJD2A = JMJD2A (Homo sapiens (Human), UniProt O75164); test: JMJD2A in vitro enzyme inhibition assay (TR-FRET); conditions: read-out: JMJD2A IC50
JMJD2A, sequence (O75164 1-350): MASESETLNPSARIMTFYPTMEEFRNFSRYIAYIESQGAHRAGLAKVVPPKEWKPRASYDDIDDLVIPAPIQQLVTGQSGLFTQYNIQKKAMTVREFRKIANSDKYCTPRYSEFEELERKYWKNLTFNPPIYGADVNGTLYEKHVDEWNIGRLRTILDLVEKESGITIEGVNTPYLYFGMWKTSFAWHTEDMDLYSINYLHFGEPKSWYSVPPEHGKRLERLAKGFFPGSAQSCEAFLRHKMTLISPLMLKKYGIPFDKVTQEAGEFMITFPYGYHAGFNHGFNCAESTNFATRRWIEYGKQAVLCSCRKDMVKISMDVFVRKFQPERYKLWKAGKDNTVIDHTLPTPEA
Protocol: This assay determines the ability of a test compound to inhibit Jarid1A, Jarid1B, JMJD2C, and JMJD2A demethylase activity.
Reaction product was determined quantitatively by TR-FRET after the addition of detection reagent Phycolink Streptavidin-allophycocyanin (Prozyme) and Europium-anti-di-methylated histone H3 lysine 9 (H3K9me2) antibody (PerkinElmer) in the presence of 5 mM EDTA in LANCE detection buffer (PerkinElmer) at a final concentration of 50 nM and 1 nM, respectively.
The assay reaction was initiated by the following: 2 μl of the mixture of 900 nM H3K9me3-biotin labeled peptide and 6 μM alpha-ketoglutaric acid with 2 μl of 11-point serial diluted inhibitor in 3% DMSO were added to each well of plate, followed by the addition of 2 μl of 6 nM JMJD2A to initiate the reaction. The reaction mixture was incubated at room temperature for 30 minutes, and terminated by the addition of 6 μl of 5 mM EDTA in LANCE detection buffer containing 100 nM Phycolink Streptavidin-allophycocyanin and 2 nM Europium-anti-H3K9me2 antibody.

FBXL10, sequence (Q8NHM5 1-650): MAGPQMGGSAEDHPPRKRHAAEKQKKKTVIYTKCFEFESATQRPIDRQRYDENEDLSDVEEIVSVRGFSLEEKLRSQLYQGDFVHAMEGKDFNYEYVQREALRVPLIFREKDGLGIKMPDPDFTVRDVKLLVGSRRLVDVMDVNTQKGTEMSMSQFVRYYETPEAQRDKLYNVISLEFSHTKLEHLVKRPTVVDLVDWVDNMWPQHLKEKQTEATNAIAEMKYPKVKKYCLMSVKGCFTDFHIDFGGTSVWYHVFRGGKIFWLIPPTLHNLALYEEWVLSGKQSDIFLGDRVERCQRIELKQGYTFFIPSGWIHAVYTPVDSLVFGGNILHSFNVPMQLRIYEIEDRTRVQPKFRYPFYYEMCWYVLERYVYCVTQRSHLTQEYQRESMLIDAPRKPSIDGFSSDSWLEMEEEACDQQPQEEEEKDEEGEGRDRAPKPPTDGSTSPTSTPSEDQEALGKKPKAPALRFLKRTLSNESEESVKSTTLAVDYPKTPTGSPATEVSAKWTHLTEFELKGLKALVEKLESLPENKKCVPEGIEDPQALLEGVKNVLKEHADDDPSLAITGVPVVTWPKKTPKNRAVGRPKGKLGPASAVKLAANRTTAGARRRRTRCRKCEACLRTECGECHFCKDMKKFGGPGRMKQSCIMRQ
JMJD2C, sequence (Q9H3R0 2-372): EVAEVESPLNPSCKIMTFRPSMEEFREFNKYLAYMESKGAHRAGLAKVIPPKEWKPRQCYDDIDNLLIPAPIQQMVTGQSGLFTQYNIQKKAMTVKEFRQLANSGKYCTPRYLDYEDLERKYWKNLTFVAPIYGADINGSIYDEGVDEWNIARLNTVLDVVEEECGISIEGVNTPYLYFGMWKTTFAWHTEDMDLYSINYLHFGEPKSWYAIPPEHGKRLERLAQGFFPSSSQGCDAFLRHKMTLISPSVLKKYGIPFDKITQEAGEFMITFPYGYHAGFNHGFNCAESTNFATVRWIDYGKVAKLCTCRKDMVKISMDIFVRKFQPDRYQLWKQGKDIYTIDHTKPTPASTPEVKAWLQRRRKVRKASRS
Jarid1A, sequence (P29375 1-1090): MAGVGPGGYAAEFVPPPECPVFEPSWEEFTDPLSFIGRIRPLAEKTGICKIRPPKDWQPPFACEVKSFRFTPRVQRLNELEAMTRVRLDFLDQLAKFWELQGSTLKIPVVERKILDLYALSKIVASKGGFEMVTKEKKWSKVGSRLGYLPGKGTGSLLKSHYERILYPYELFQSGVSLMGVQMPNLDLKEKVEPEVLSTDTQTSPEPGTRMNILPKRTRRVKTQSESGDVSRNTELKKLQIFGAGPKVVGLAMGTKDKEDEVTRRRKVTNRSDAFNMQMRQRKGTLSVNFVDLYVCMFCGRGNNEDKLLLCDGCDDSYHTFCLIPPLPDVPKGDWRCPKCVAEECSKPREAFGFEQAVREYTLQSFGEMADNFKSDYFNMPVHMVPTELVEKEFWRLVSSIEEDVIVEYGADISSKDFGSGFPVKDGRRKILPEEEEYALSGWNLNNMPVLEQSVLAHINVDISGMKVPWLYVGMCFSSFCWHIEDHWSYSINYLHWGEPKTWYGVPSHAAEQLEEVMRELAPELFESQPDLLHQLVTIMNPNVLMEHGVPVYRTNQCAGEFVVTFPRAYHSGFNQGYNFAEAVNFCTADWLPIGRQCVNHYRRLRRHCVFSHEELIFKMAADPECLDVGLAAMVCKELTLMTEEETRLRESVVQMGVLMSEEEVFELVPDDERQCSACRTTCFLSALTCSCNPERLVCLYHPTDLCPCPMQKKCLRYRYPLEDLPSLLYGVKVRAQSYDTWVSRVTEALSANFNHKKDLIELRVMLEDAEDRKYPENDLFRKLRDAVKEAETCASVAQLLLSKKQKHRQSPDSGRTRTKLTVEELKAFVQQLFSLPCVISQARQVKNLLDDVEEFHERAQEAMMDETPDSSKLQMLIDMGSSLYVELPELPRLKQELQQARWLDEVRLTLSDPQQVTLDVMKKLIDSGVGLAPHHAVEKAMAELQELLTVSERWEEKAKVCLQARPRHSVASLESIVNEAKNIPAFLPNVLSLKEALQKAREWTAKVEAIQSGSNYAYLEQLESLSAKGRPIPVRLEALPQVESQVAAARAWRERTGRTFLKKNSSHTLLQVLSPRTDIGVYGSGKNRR
Jarid1B, sequence (Q9UGL1 2-751): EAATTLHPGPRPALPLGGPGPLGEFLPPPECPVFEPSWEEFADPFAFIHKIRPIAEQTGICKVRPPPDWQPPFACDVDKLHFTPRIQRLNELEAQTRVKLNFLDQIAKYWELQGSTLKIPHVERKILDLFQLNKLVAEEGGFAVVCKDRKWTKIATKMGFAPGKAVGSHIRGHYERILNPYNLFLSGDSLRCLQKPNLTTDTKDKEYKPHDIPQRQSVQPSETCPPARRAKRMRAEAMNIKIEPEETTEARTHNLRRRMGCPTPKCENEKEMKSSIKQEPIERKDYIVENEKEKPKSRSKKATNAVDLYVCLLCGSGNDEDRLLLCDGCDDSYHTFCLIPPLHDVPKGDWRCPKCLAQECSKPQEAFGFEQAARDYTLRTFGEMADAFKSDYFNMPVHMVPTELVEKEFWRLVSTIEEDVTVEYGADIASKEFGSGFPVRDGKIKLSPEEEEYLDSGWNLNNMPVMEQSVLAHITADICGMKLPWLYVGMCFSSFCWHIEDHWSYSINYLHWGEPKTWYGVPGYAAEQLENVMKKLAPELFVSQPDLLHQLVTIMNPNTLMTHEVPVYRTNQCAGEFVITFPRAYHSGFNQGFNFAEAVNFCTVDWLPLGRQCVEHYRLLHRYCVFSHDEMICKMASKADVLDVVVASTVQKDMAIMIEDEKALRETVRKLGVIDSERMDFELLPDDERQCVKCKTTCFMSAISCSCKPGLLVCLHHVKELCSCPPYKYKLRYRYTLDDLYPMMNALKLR

| IC50 (Jarid1A) [nM] | IC50 (Jarid1B) [nM] | IC50 (JMJD2C) [nM] | IC50 (FBXL10) [nM] | IC50 (JMJD2A) [nM] | SMILES |
| --- | --- | --- | --- | --- | --- |
| 100 to 1000 | < 100 | 100 to 1000 | 100 to 1000 | – | Cc1cc(O)n(-c2cc(C(=O)O)ccn2)n1 [Example 1, 2-(5-hydroxy-3-methyl-1H-pyrazol-1-yl)isonicotinic acid] |
| < 100 | < 100 | < 100 | 1000 to 10000 | – | Cc1ccc(COc2ccnn2-c2cc(C(=O)O)ccn2)cc1 [Example 55, 2-{5-[(4-methylbenzyl)oxy]-1H-pyrazol-1-yl}pyridine-4-carboxylic acid] |
| 100 to 1000 | 100 to 1000 | 1000 to 10000 | < 100 | – | COCc1cc(O)n(-c2cc(C(=O)O)ccn2)n1 [Example 9, 2-(5-hydroxy-3-(methoxymethyl)-1H-pyrazol-1-yl)isonicotinic acid] |
| < 100 | < 100 | < 100 | – | < 100 | O=C(O)c1ccnc(-n2nccc2OCc2ccccc2)c1 [Example 39, 2-(5-(benzyloxy)-1H-pyrazol-1-yl)isonicotinic acid] |
| 1000 to 10000 | 1000 to 10000 | 1000 to 10000 | 100 to 1000 | – | Cc1nn(-c2cc(C(=O)O)ccn2)c(O)c1-c1ccccc1 [Example 4, 2-(5-hydroxy-3-methyl-4-phenyl-1H-pyrazol-1-yl)isonicotinic acid] |
| 100 to 1000 | 100 to 1000 | 100 to 1000 | > 10000 | – | O=C(O)c1ccnc(-n2nccc2-c2ccc(F)cc2)c1 [Example 27, 2-(5-(4-fluorophenyl)-1H-pyrazol-1-yl)isonicotinic acid] |
| < 100 | < 100 | < 100 | > 10000 | – | CN(CCc1cnn(-c2cc(C(=O)O)ccn2)c1)Cc1ccc(F)cc1 [Example 156, 2-[4-[2-[(4-fluorophenyl)methyl-methylamino]ethyl]pyrazol-1-yl]pyridine-4-carboxylic acid] |
| < 100 | < 100 | 100 to 1000 | 1000 to 10000 | – | O=C(O)c1ccnc(-n2nccc2OCc2ccc(Cl)cc2OCC(F)(F)F)c1 [Example 108, 2-[5-[[4-chloro-2-(2,2,2-trifluoroethoxy)phenyl]methoxy]pyrazol-1-yl]pyridine-4-carboxylic acid] |
| 1000 to 10000 | 1000 to 10000 | > 10000 | < 100 | – | O=C(O)c1ccnc(-n2nc(-c3ccccc3Cl)cc2O)c1 [Example 7, 2-(3-(2-chlorophenyl)-5-hydroxy-1H-pyrazol-1-yl)isonicotinic acid] |
| – | – | 1000 to 10000 | < 100 | – | O=C(O)c1ccnc(-n2nc(Cc3ccc(F)cc3F)cc2O)c1 [Example 175, 2-[3-[(2,4-difluorophenyl)methyl]-5-hydroxypyrazol-1-yl]pyridine-4-carboxylic acid] |
| > 10000 | > 10000 | > 10000 | 1000 to 10000 | – | O=C(O)c1ccnc(-n2nccc2Cc2ccccc2)c1 [Example 32, 2-(5-benzyl-1H-pyrazol-1-yl)isonicotinic acid] |
| 100 to 1000 | 100 to 1000 | 100 to 1000 | – | 100 to 1000 | O=C(O)c1ccnc(-n2nccc2-c2ccc(F)cc2F)c1 [Example 14, 2-(5-(2,4-difluorophenyl)-1H-pyrazol-1-yl)isonicotinic acid] |
| – | – | 1000 to 10000 | < 100 | – | Oc1cc(Cc2cccc(Cl)c2)nn1-c1cc(-c2nnn[nH]2)ccn1 [Example 168, 5-[(3-chlorophenyl)methyl]-2-[4-(1H-tetrazol-5-yl)pyridin-2-yl]pyrazol-3-ol] |
| < 100 | < 100 | < 100 | 1000 to 10000 | – | Cc1ccc(COc2ccnn2-c2cc(C(=O)O)ccn2)cc1Cl [Example 92, 2-[5-[(3-chloro-4-methylphenyl)methoxy]pyrazol-1-yl]pyridine-4-carboxylic acid] |
| < 100 | < 100 | < 100 | > 10000 | – | O=C(O)c1ccnc(-n2nccc2OCc2ccc(F)cc2)c1 [Example 40, 2-{5-[(4-fluorobenzyl)oxy]-1H-pyrazol-1-yl}pyridine-4-carboxylic acid] |
| 1000 to 10000 | 1000 to 10000 | 1000 to 10000 | 1000 to 10000 | – | O=C(O)c1ccnc(-n2ccc(Cc3ccccc3)n2)c1 [Example 33, 2-(3-benzyl-1H-pyrazol-1-yl)isonicotinic acid] |
